For data set [1] the following is noted: rats, NSAID co-administered; cited from earlier work.
A further data set has as its system rats. Conditions: cited from earlier work.
The subject of data set [2] is Hep G2 cells. As to the kind of experiment: Triglyceride secretion into culture media by HepG2 cells. Format: cell-based, human. Conditions: 0.2 μM, in the presence of insulin; p<0.05 vs control. The method, then: (§1) Hep G2 cells are liver cells derived from a human hepatoblastoma that is free of known hepatotropic viral agents. This cell line expresses a wide variety of liver-specific metabolic functions and is used as a model system to study cholesterol and triglyceride metabolism. The effects of chromium histidinate on triglyceride secretion and on media glucose levels, the HepG2 cell line was grown in culture media with or without insulin in the presence of 0, 0.2, 2, or 20 μM chromium histidinate. Media glucose levels and triglyceride levels were measured using standard protocols. Specifically, triglyceride levels were measured spectrophotometrically through hydrolysis by lipase and coupled enzyme reactions on the resulting glycerol. Glucose levels were measured spectrophotometrically using the glucose oxidase method, with a standard dilution curve serving to calibrate the measurements.

The test system of data set [3] is Hep G2 cells. Description: Media glucose levels of HepG2 cell cultures. Conditions: 0.2 μM, in the absence of insulin; p<0.05 vs control. Format: cell-based, human. As to the method:
as §1

Another data set has as its system normal rats. Description: Glucose and lipid metabolism in normal rats fed standard diet (groups 1 and 2). The conditions noted are these: standard diet + chromium histidinate 12 weeks. The method, then: (§2) Wistar rats were reared at the temperature of (22±2° C.), humidity (55±5%) and a 12/12 h light/dark cycle. Pellet food and water were provided ad libitum.
(§3) Fat-fed/STZ treated rats provide an animal model for type 2 diabetes that simulates the human syndrome, and is suitable for the testing of antidiabetic compounds (See, e.g., Reed et al. (2000) Metabolism 49(11):1390-1394). Rats fed a high fat diet can be used as a model system for insulin resistance. Ten Wistar rats (55 days old) in each group were treated as follows:
Group 1: Control rats were fed standard diet (12% of calories as fat) for 12 weeks.
Group 2: Control rats were fed standard diet+chromium histidinate for 12 weeks.

For another data set, the system named is insulin resistant rats. As to the kind of experiment: Glucose and lipid metabolism in insulin resistant rats fed high fat diet (groups 3 and 4). Format: in vivo, Wistar rats. Conditions: approx. 110 mcg/kg body.d in water, 12 weeks. As to the method: as §2, §3
Group 3: Rats were fed high fat diet (40% of calories as fat) for 12 weeks.
Group 4: Rats were fed high-fat diet (40% of calories as fat) and chromium histidinate (approx. 110 mcg/kg body.d) was included into water for 12 weeks.

Another data set deals with diabetic rats. As to the kind of experiment: Glucose and lipid metabolism in high fat diet/streptozotocin diabetic rats (groups 5 and 6). Format: in vivo, Wistar rats. Conditions: high-fat diet + STZ 40 mg/kg i.p. rats, 110-mcg/kg body.d in water, 10 weeks. As to the method:
as §2, §3
Group 5: Rats were fed high-fat diet (40% of calories as fat) for 2 weeks and then injected with streptozotocin (STZ, 40 mg/kg i.p.) for 12 weeks.
Group 6: Rats were fed high-fat diet (40% of calories as fat) for 2 weeks and then injected with streptozotocin (STZ, 40 mg/kg i.p.) and chromium histidinate was included into water at a concentration of 110-mcg/kg body.d for 10 weeks.
Before STZ injection glucose concentrations of rats were measured and compared to controls.

Data set [4] concerns subject having cardiometabolic syndrome. Description: Example 3: treatment of cardiometabolic syndrome. Format: in vivo. Conditions: between 50 μg and 5000 μg/day, orally. As to the method: A subject is identified as having cardiometabolic syndrome. The subject presents with one or more symptoms associated with cardiometabolic syndrome such as obesity, hypertension, dyslipidemia, impaired glucose tolerance, diabetes, an increase in C-reactive protein, and increase in TNFα, an increase in IL-6, an increase in IL-10, or an increase in oxidative stress.
The individual is administered between 50 μg and 5000 μg chromium histidinate complex/day, orally. The chromium histidinate is administered orally.

The subject of data set [5] is subject with cardiovascular disease. As to the kind of experiment: Example 8: treatment of cardiovascular disease. The conditions noted are these: about 50-5000 μg daily. Format: in vivo. The method, then:
A subject is identified with cardiovascular disease. […] The subject is provided between about 50 μg and 5000 μg chromium histidinate daily. After a period of time, the subject's arteriosclerosis, atherosclerosis, peripheral vascular disease, or coronary heart disease improves.

For data set [6] the test system is unchanged. As to the kind of experiment: Example 9: treatment of cardiovascular disease with combination therapy. The format is in vivo. The conditions noted are these: about 50-5000 μg daily plus a second therapeutic for cardiovascular disease. As to the method:
A subject is identified with cardiovascular disease. […] The subject is provided between about 50 μg and 5000 μg chromium histidinate daily. The subject is also provided a therapeutically effective amount of a second therapeutic for cardiovascular disease such as peripheral antiadrenergic therapy, antihypertensive drugs, vasodilators, inodilators, cardiac glycosides, antidysrhythmic drugs. After a period of time, the subject's arteriosclerosis, atherosclerosis, peripheral vascular disease, or coronary heart disease improves.

For data set [7], the system named is subject with a PPAR associated disorder. As to the kind of experiment: Example 13: treatment of PPAR disorders. Conditions: about 50-5000 μg, orally, daily. Format: in vivo. As to the method: A subject is identified with a PPAR associated disorder. The subject has one or more of the following symptoms or conditions: rheumatoid arthritis, multiple sclerosis, inflammatory bowel disease, breast, colon, or prostate cancer, low levels of blood, lymph and/or cerebrospinal fluid apoE and/or apo A-1, elevated serum VLDL cholesterol levels, elevated serum LDL cholesterol levels, elevated triglyceride levels, elevated serum apo B levels, or the like. The subject is administered between about 50 μg and 5000 μg chromium histidinate, orally, daily. After a period of time, the subject's symptoms improve.

Data set [8] has as its system subject having a dyslipidemia. Description: Example 14: treatment of dyslipidemia. Format: in vivo. The conditions noted are these: about 50-5000 μg daily, orally; one or more of the listed changes. As to the method:
A subject is identified as having a dyslipidemia. […] The subject is administered between about 50 μg and 5000 μg chromium histidinate daily, orally.

In a further data set the test system is subject having impotence. Description: Example 6: treatment of sexual dysfunction. The format is in vivo. The conditions noted are these: about 50-5000 μg daily, orally. As to the method: A subject is identified as having impotence. The subject is orally administered between about 50 μg and 5000 μg chromium trihistidinate daily.
In data set [9] the test system is subject with compromised renal function. Description: Example 10: treatment of renal disorders. Format: in vivo. Conditions: between 50 μg and 5000 μg daily. As to the method: A subject is identified with compromised renal function. […] The subject is administered an effective amount of chromium trihistidinate daily, e.g. between 50 μg and 5000 μg chromium trihistidinate daily. After a period of time, the subject's renal function improves.

The test system of data set [10] is subject having insulin resistance. Description: Example 5: treatment of insulin resistance. Format: in vivo. Conditions: about 50-5000 μg daily, orally, in the form of a bar. The method, then: A subject is identified as having insulin resistance. […] The subject is administered between about 50 μg and 5000 μg chromium polyhistidinate daily, orally, in the form of a bar.

Data set [11] concerns subject with diabetes or hyperglycemia. As to the kind of experiment: Example 11: treatment of glucose metabolism disorders. The format is in vivo. Conditions: about 50-5000 μg daily, orally. As to the method: A subject is identified with one or more glucose metabolism disorders such as diabetes or hyperglycemia. The subject is orally administered between about 50 μg and 5000 μg chromium polyhistidinate daily.

The conditions of data set [12]: cited from earlier work.

Read-outs that look alike come from different tables or passages of the source.

On to `CC(=O)Oc1ccccc1C(=O)O` [aspirin], for which the “chromium absorption following oral administration of CrCl3” value in data set [1] is recorded as “facilitated”.

On to `[Cl][Cr]([Cl])[Cl]` [chromium chloride], for which the toxic effects result with rats (rats, levels several thousand times the upper limit of the ESADDI for chromium for humans (based on body weight)) is “without toxic effects”.

For chromium picolinate, the toxic effects result with rats (rat, in vivo) is “without toxic effects”.

On to chromium histidinate, for which, in the data set on Hep G2 cells [2], the “triacylglycerol (triglycerides secreted into culture media)” value is listed as “significantly decreased”. In addition, the “glucose in the media” value in the data set on Hep G2 cells [3] is reported as “significant decrease”. Moreover, in the data set on normal rats, the “free fatty acid levels” value is reported as “decreases”, the insulin levels result is “increases”, the insulin sensitivity entry was “increases” and the serum chromium levels entry is listed as “increases”. In the data set with normal rats, the serum glucose levels result was “lowers”, the serum triglyceride levels entry was “decreases” and the “total serum cholesterol levels” value is on record as “decreases”. Moreover, in the data set on insulin resistant rats, the body weight result is recorded as “significantly lowers”, the cortisol levels entry is “decreases”, the “free fatty acid levels” value is reported as “decreases” and the insulin levels result is given as “increases”. For the same compound, in the data set with insulin resistant rats, the insulin sensitivity entry is given as “increases”, the serum glucose levels result was “lowers”, the “total serum cholesterol levels” value is listed as “decreases” and the triglyceride levels result is reported as “decreases”. In the data set on diabetic rats, the body weight result is “significantly lowers”, the cortisol levels entry is “decreases”, the “free fatty acid levels” value is “decreases” and the insulin levels entry is “increases”. For the same compound, in the data set with diabetic rats, the insulin sensitivity result is “increases”, the serum glucose levels result is on record as “lowers”, the “total serum cholesterol levels” value is listed as “decreases” and the triglyceride levels result is reported as “decreases”. Moreover, in data set [4], the “symptoms associated with cardiometabolic syndrome” value is on record as “reduction in one or more of the symptoms”. Besides, the “arteriosclerosis, atherosclerosis, peripheral vascular disease, or coronary heart disease” value in data set [5] is “improves”. Besides, the “arteriosclerosis, atherosclerosis, peripheral vascular disease, or coronary heart disease” value in data set [6] is given as “improves”. Moreover, the “symptoms of PPAR associated disorder” value in data set [7] is recorded as “improve”. For the same compound, in data set [8], the “serum HDL cholesterol levels” value is “increased”, the “serum LDL cholesterol levels” value is “decreased”, the serum triglyceride levels result is listed as “decreased” and the “total serum cholesterol levels” value is “decreased”.

chromium trihistidinate: the sexual function entry with subject having impotence was “improved”. Moreover, the renal function entry in data set [9] was “improves”.

As for chromium polyhistidinate, in data set [10], the hyperinsulinemia entry is reported as “decreased” and the insulin function result was “improved”. For the same compound, the “fasting and/or post-prandial glucose levels” value in data set [11] is “improvement”.

On to `N[C@@H](Cc1c[nH]cn1)C(=O)O` [histidine], for which the pKa in [12] is on record as about 6.0.

As usually defined, the pKa is the negative logarithm of the acid dissociation constant.

Source of the values: US20220023337A1, “USE OF CHROMIUM HISTIDINATE FOR TREATMENT OF CARDIOMETABOLIC DISORDERS” (NUTRITION 21, LLC, priority 2007, published 2022).
